The values below come from patent US10507214B2 (Druggability Technologies IP Holdco Limited, priority 2016, dated 2019).

As usually defined, the solubility is the dissolved amount per volume that the medium holds. As a reminder, the Papp is the rate of passage across a membrane or cell layer, normalised by area and donor concentration. A low value points to slow passage. The term Tmax denotes the time at which the peak concentration occurs.

The conditions of series [1]: cited from earlier work.
For series [2] the following is noted: healthy subjects, within the clinical dose range; cited from earlier work.
For series [3] the following is noted: cited from earlier work. This is another data set of the same source.
For series [4] the following is noted: single dose of 200 mg of current formulation; cited from earlier work.
Series [5] is described as follows: Apparent solubility by UV-VIS spectroscopy after 100 nm filtration. The note with it: thermodynamic from solid; redispersed at 2 mg/mL in ultrapurified water, room temperature. Type of series: physicochemical. The text has this:
The resulting solutions were filtered by 100 nm disposable syringe filter.

Series [6] is described as follows: PAMPA permeability. Conditions: pH 7, in water, FaSSIF and FeSSIF. Type of series: in vitro ADME.
Series [7] is described as follows: In-vivo PK test in beagle dogs. The note with it: oral, dispersed granulates, beagle dogs following a high-fat meal.
Where [8] appears, read: single oral dose of radiolabeled drug.

Converted amounts (≈) assume the structure as drawn. Like-named read-outs stand apart in the source and are kept apart here.

For the compound `Cc1ccc(-c2cc(C(F)(F)F)nn2-c2ccc(S(N)(=O)=O)cc2)cc1` [Celecoxib, 4-[5-(4-methylphenyl)-3-(trifluoromethyl)-1H-pyrazol-1-yl] benzenesulfonamide], in series [1] (after an oral dose), the “time of peak plasma levels” value is “approximately 3 hrs”. In addition, the effective half-life result in series [1] (fasted conditions) is “approximately 11 hours”. Moreover, the “dose proportionality of Cmax and AUC” value in series [1] (fasting conditions, up to 200 mg BID) is reported as “roughly dose-proportional”. For the same compound, in series [1] (healthy adult volunteers), the “overall systemic exposure (AUC), intact capsule versus capsule contents sprinkled on applesauce” value is reported as “equivalent”. For the same compound, in series [1] (in vivo), the “apparent plasma clearance (CL/F)” value is reported as “about 500 mL/min”; the “unchanged drug recovered in the urine and feces” value is under 3%. Moreover, the steady-state conditions reached in series [1] (multiple dosing) is at most 5 days. Moreover, the “time of peak plasma levels” value in series [1] (single dose of 200 mg of current formulation, oral) is 3 h. Moreover, in series [1] (setting [8]), the “carboxylic acid metabolite in urine and feces” value is 73 % of dose; the “dose excreted in the feces” value is reported as “approximately 57%”; the “dose excreted into the urine” value is listed as about 27%. The protein bound in series [2] is reported as about 97%. In addition, the solubility in chloroform result in series [3] (chloroform) is “soluble”. For the same compound, the solubility in methanol result in series [3] (methanol) is on record as “soluble”. Moreover, the solubility in water result in series [3] (water) is “insoluble”. Moreover, the “onset of pain relief” value in series [4] is at least 1 h.

Consider `Cc1ccc(-c2cc(C(F)(F)F)nn2-c2ccc(S(N)(=O)=O)cc2)cc1` [crystalline Celecoxib (micronized)], for which the solubility in series [5] was 2.85 µg/mL (≈ 7.47 µM). In addition, the Papp at 4 h in series [6] was under 0.2 ×10⁻⁶ cm/s. Besides, the Tmax in series [7] (dog, plasma, 5 mg/kg) was 2 h. In addition, in series [7], the t250 ng/ml stood at 45 min.
